Results as given in the supplement of paper PMC11061612.

Assays:
[1] = tested on: SK-GT-4 (Esophageal Adenocarcinoma); assay: Bliss excess, mean over the matrix (fraction); higher = more synergy
Procedure, shortened: (§1)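 Bliss excess equals the observed combination effect minus the expected value EA + EB − EA·EB, where EA and EB are the effects of each agent alone. Combination Emax is the second-highest inhibition within the matrix. Inhibition was scaled from CellTiter-Glo 2.0 luminescence, with 0 set by vehicle wells and 1 by blank wells, after 72 hours of two-drug dosing of cells plated in 1536-well plates.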

[2] = tested on: 8505C (Thyroid Gland Carcinoma); assay: combination Emax (second highest fraction inhibited in the dose matrix, 72 h); higher = more inhibition; extreme values may be limits of the assay
Procedure, shortened: as §1

[3] = tested on: CHSA8926 (Chondrosarcoma); assay: as above
Procedure, shortened: as §1

[4] = tested on: COR-L279 (Small Cell Lung Carcinoma); assay: as above
Procedure, shortened: as §1

[5] = tested on: DMS-114 (Small Cell Lung Carcinoma); assay: as above
Procedure, shortened: as §1

[6] = tested on: ESO51 (Esophageal Adenocarcinoma); assay: as above
Procedure, shortened: as §1

[7] = tested on: HCC1187 (Breast Carcinoma); assay: as above
Procedure, shortened: as §1

[8] = tested on: IM-95 (Gastric Carcinoma); assay: as above
Procedure, shortened: as §1

[9] = tested on: KP-3 (Pancreatic Carcinoma); assay: as above
Procedure, shortened: as §1

[10] = tested on: KY821 (Acute Myeloid Leukemia); assay: as above
Procedure, shortened: as §1

[11] = tested on: MN-60 (B-Lymphoblastic Leukemia); assay: as above
Procedure, shortened: as §1

[12] = tested on: NCI-H520 (Squamous Cell Lung Carcinoma); assay: as above
Procedure, shortened: as §1

[13] = tested on: NCI-H661 (Non-Small Cell Lung Carcinoma); assay: as above
Procedure, shortened: as §1

[14] = tested on: PC-3 (Prostate Carcinoma); assay: as above
Procedure, shortened: as §1

[15] = tested on: SK-GT-4 (Esophageal Adenocarcinoma); assay: as above
Procedure, shortened: as §1

[16] = tested on: SNU-398 (Hepatocellular Carcinoma); assay: as above
Procedure, shortened: as §1

[17] = tested on: ST486 (Burkitt's Lymphoma); assay: as above
Procedure, shortened: as §1

[18] = tested on: SU-DHL-5 (B-Cell Non-Hodgkin's Lymphoma); assay: as above
Procedure, shortened: as §1

[19] = tested on: SUP-B15 (B-Lymphoblastic Leukemia); assay: as above
Procedure, shortened: as §1

[20] = tested on: T-T (Esophageal Squamous Cell Carcinoma); assay: as above
Procedure, shortened: as §1

SMILES: NC1(C(=O)N[C@@H](CCO)c2ccc(Cl)cc2)CCN(c2ncnc3[nH]ccc23)CC1 [Capivasertib] + CC(C)n1c(=O)n(C)c2cnc3cc(F)c(-c4ccc(OCCCN5CCCCC5)nc4)cc3c21 [AZD1390] (first compound max 10 µM, 7x7, partner max 0.3 µM)
- Bliss excess [1]: -0.0586
- combination Emax [2]: 0.195
- combination Emax [3]: 0.379
- combination Emax [4]: 0.602
- combination Emax [5]: 0.442
- combination Emax [6]: 0.246
- combination Emax [7]: 0.296
- combination Emax [8]: 0.333
- combination Emax [9]: 0.203
- combination Emax [10]: 0.547
- combination Emax [11]: 0.44
- combination Emax [12]: 0.699
- combination Emax [13]: 0.245
- combination Emax [14]: 0.322
- combination Emax [15]: 0.506
- combination Emax [16]: 0.25
- combination Emax [17]: 0.215
- combination Emax [18]: 1
- combination Emax [19]: 0.398
- combination Emax [20]: 0.282

SMILES: COc1cccc(OCCCN)c1-c1cc(Nc2cnc(C#N)cn2)n[nH]1 [Prexasertib] + CCc1c2c(nc3ccc(O)cc13)-c1cc3c(c(=O)n1C2)COC(=O)[C@]3(O)CC [SN-38] (first compound max 1 µM, 7x7, partner max 0.3 µM)
- Bliss excess [1]: -0.0304
- combination Emax [2]: 0.854
- combination Emax [3]: 0.537
- combination Emax [4]: 1
- combination Emax [5]: 0.716
- combination Emax [6]: 0.879
- combination Emax [7]: 0.866
- combination Emax [8]: 0.602
- combination Emax [9]: 0.57
- combination Emax [10]: 1
- combination Emax [11]: 0.825
- combination Emax [12]: 0.867
- combination Emax [13]: 0.889
- combination Emax [14]: 0.703
- combination Emax [15]: 0.743
- combination Emax [16]: 0.725
- combination Emax [17]: 1
- combination Emax [18]: 1
- combination Emax [19]: 1
- combination Emax [20]: 0.971

SMILES: COc1nnc2ccc(N3CCC(c4ccc(OCCN5CCN(C)C(=O)[C@H]5C)cc4)CC3)nn12 [AZD5153] + C[C@@H]1COCCN1C2=NC(=NC(=C2)C3(CC3)[S@](=N)(=O)C)C4=C5C=CNC5=NC=C4 [AZD6738] (first compound max 1 µM, 7x7, partner max 10 µM)
- Bliss excess [1]: -0.0252
- combination Emax [2]: 0.807
- combination Emax [3]: 0.632
- combination Emax [4]: 0.972
- combination Emax [5]: 0.733
- combination Emax [6]: 0.823
- combination Emax [7]: 0.696
- combination Emax [8]: 0.44
- combination Emax [9]: 0.409
- combination Emax [10]: 1
- combination Emax [11]: 0.8
- combination Emax [12]: 0.869
- combination Emax [13]: 0.698
- combination Emax [14]: 0.5
- combination Emax [15]: 0.663
- combination Emax [16]: 0.786
- combination Emax [17]: 0.973
- combination Emax [18]: 1
- combination Emax [19]: 1
- combination Emax [20]: 0.587

SMILES: Cn1cnc2c(F)c(Nc3ccc(Br)cc3Cl)c(C(=O)NOCCO)cc21 [Selumetinib] + C=CCn1c(=O)c2cnc(Nc3ccc(N4CCN(C)CC4)cc3)nc2n1-c1cccc(C(C)(C)O)n1 [AZD1775] (first compound max 10 µM, partner max 1 µM)
- Bliss excess [1]: -0.0203
- combination Emax [2]: 0.425
- combination Emax [3]: 0.556
- combination Emax [4]: 0.432
- combination Emax [5]: 0.192
- combination Emax [6]: 0.681
- combination Emax [7]: 0.682
- combination Emax [8]: 0.453
- combination Emax [9]: 0.274
- combination Emax [10]: 1
- combination Emax [11]: 0.282
- combination Emax [12]: 0.295
- combination Emax [13]: 0.553
- combination Emax [14]: 0.165
- combination Emax [15]: 0.528
- combination Emax [16]: 0.784
- combination Emax [17]: 0.978
- combination Emax [18]: 0.984
- combination Emax [19]: 0.915
- combination Emax [20]: 0.301

SMILES: CCN(CCO)CCCOc1ccc2c(Nc3cc(CC(=O)Nc4cccc(F)c4)[nH]n3)ncnc2c1 [AZD2811] + C[C@@H]1COCCN1C2=NC(=NC(=C2)C3(CC3)[S@](=N)(=O)C)C4=C5C=CNC5=NC=C4 [AZD6738] (first compound max 1 µM, 7x7, partner max 10 µM)
- Bliss excess [1]: -0.0183
- combination Emax [2]: 0.278
- combination Emax [3]: 0.332
- combination Emax [4]: 0.832
- combination Emax [5]: 0.435
- combination Emax [6]: 0.751
- combination Emax [7]: 0.846
- combination Emax [8]: 0.312
- combination Emax [9]: 0.368
- combination Emax [10]: 0.968
- combination Emax [11]: 0.477
- combination Emax [12]: 0.663
- combination Emax [13]: 0.441
- combination Emax [14]: 0.431
- combination Emax [15]: 0.583
- combination Emax [16]: 0.485
- combination Emax [17]: 0.913
- combination Emax [18]: 1
- combination Emax [19]: 0.914
- combination Emax [20]: 0.42

SMILES: CN(CCO)CC[C@H](CSc1ccccc1)Nc1ccc(S(=O)(=O)NC(=O)c2ccc(N3CCC([C@@H](O)c4ccccc4-c4ccc(Cl)cc4)CC3)cc2)cc1S(=O)(=O)C(F)(F)F [AZD4320] + C1CN(CCC1(C(=O)N[C@@H](CCO)C2=CC=C(C=C2)Cl)N)C3=NC=NC4=C3C=CN4 [Capivasertib] (first compound max 1 µM, 7x7, partner max 3 µM)
- Bliss excess [1]: -0.0345
- combination Emax [2]: 0.135
- combination Emax [3]: 0.579
- combination Emax [4]: 0.983
- combination Emax [5]: 0.229
- combination Emax [6]: 0.0266
- combination Emax [7]: 0.146
- combination Emax [8]: 0.658
- combination Emax [9]: 0.0865
- combination Emax [10]: 1
- combination Emax [11]: 0.137
- combination Emax [12]: 0.593
- combination Emax [13]: 0.0615
- combination Emax [14]: 0.231
- combination Emax [15]: 0.443
- combination Emax [16]: 0.0802
- combination Emax [17]: 0.881
- combination Emax [18]: 0.956
- combination Emax [19]: 1
- combination Emax [20]: 0.199
